Two molecules from PMC9317966, “Structure-function analysis of the AMPK activator SC4 and identification of a potent pan AMPK activator” (Biochemical Journal, 2022) can be followed below.

The test system of one data set is C2C12 myoblasts. The data set can be described thus: C2C12 oxygen consumption rate (Seahorse), mitochondrial function. It counts as cell-based, Murine. To be noted: for basal respiration, ATP production, maximal respiration, spare respiratory capacity, non-mitochondrial oxygen consumption and coupling efficiency: 1 h. On the procedure:
Murine C2C12 myoblasts were plated at 1 × 10^4 cells/well into Agilent Seahorse XFe24 Cell Culture Microplates in DMEM (life Technologies, Australia) containing 10% (v/v) fetal calf serum, 1% L-glutamine (v/v), and 1% (v/v) antibiotic solution (100 unit/ml penicillin/streptomycin) at 37°C in an atmosphere of 5% CO2. The next day, cells were switched to Seahorse basal assay media (Agilent, cat#: 102353-100; 48.5 ml) containing Glutamax (500 µl of 100×; Gibco, cat#35050), D-glucose (Sigma–Aldrich cat#: G8769) and sodium pyruvate (100×; Gibco cat#: 11360-070) at pH 7.4. MK-8722 at varying doses (0, 1, 10 µM) was incubated with myotubes 1 h prior to experiment, and the assay performed by titrating oligomycin (2 µM), FCCP (2 µM), and rotenone (2 µM) plus antimycin A (2 µM) as indicated. A Seahorse XFe24 Flux Analyzer (Seahorse Biosciences) was used to measure Oxygen Consumption Rate (OCR) at three time points during basal respiration and after each injection. Cells were lysed in equal volume (20 µl) and OCR measurements were normalised to total protein determined by polyacrylamide electrophoresis (5 µl lysate/well) and stain-free imaging.
Lysates were assessed for phosphorylation of AMPKα-Thr172 by immunoblot. n = 3, data presented as mean T172 phosphorylation (arbitrary units) ± SEM. Statistical significance vs. respective vehicle treatment was performed using unpaired, two-tailed Student’s t-test. **** P < 0.0001 indicates significant increase in a-Thr172 phosphorylation relative to vehicle treated WT γ1AMPK. Representative immunoblots are shown. (B) C2C12 myoblast oxygen consumption rate following treatment of MK-8722 (0, 1, 10 µM) for 1 h and titration of specific respiration modulators. (C-I) Parameters of mitochondrial function. n = 6-7, data presented as mean oxygen consumption rate ± SEM. […] (J) Lysates were assessed for total protein content following the respiration assay.

The target in data set [1] is T1, GST-α1β1γ1 AMPK in solution (Homo sapiens, UniProt Q13131+Q9Y478).
T1 construct: triply transfected with full-length AMPK α1 or α2 (NH2-terminal GST fusion, pDEST27 vector); full-length AMPK α1 or α2 (NH2-terminal GST fusion, pDEST27 vector), β1 or β2 (COOH-terminal FLAG fusion, pcDNA3.1 vector); FLAG (C); made in house; host or cells: HEK293T/17 cells, transient triple transfection
T1 sequence (Q13131 whole entry, the tested form may be a part): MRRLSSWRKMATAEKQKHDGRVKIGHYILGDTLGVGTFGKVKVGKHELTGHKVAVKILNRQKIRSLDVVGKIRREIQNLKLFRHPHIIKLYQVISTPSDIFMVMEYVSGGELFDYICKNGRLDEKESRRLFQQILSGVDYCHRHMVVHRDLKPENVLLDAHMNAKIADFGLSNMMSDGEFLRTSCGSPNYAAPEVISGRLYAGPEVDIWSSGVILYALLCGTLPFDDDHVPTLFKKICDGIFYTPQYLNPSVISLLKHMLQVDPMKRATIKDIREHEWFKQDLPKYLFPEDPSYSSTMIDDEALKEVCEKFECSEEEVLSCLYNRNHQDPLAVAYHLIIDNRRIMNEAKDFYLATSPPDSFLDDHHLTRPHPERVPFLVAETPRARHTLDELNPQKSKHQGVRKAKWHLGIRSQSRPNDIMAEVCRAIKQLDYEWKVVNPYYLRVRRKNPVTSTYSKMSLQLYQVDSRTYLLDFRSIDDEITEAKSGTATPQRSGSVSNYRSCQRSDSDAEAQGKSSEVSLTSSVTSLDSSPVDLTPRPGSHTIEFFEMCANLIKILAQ
T1 sequence (Q9Y478 whole entry, the tested form may be a part): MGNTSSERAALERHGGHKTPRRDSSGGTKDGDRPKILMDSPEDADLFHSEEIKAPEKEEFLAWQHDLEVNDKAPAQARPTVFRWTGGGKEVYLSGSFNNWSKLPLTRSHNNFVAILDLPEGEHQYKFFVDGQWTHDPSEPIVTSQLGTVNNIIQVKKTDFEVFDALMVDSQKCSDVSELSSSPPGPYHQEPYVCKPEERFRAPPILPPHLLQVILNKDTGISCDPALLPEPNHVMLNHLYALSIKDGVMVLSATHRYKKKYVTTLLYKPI
T1 sequence (P54619 whole entry partner, the tested form may be a part): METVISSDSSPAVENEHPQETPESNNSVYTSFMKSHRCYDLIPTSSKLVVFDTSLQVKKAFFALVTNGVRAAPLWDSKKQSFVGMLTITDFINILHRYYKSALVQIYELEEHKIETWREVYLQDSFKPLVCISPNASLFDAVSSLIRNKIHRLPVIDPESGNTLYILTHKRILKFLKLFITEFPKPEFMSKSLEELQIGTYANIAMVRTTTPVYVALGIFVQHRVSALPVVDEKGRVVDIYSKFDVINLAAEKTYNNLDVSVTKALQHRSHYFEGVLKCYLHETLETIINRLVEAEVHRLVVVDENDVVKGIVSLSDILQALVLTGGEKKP
The data set can be described thus: In solution SAMS kinase assay, HEK293T/17-expressed GST-α1β1γ1 eluted from glutathione Sepharose. The conditions noted are these: for EC50: 0-30 µM activator. The format is biochemical. On the procedure:
Adherent HEK293T/17 cells at ∼50% confluency were triply transfected with full-length AMPK α1 or α2 (NH2-terminal GST fusion, pDEST27 vector), β1 or β2 (COOH-terminal FLAG fusion, pcDNA3.1 vector), and γ1, γ2 or γ3 (NH2-terminal HA fusion, pMT2 vector) in the presence of FuGENE HD transfection reagent (Promega) as per the manufacturers protocol. Cells were harvested 48 hours post-transfection by first gently washing in ice cold phosphate buffered saline (PBS; Sigma–Aldrich), then scraping in ice cold lysis buffer (50 mM TRIS pH 7.5, 150 mM NaCl, 10% (v/v) glycerol, 50 mM NaF, 5 mM sodium pyrophosphate, 1% (v/v) Triton X-100, cOmplete protease inhibitor cocktail). Lysates were clarified by centrifugation (16 000g, 3 min, 4°C), flash frozen in liquid N2 and stored at −80°C until analysis. For radioactive kinase assays, AMPK was immobilised on glutathione Sepharose 4B resin (GE Healthcare) by incubation with lysates for 1.5 h at 4°C. Following centrifugation (1000g, 3 min, 4°C), the resin was washed twice in purification buffer (50 mM HEPES pH 7.4, 150 mM NaCl, 10% (v/v) glycerol, 0.02% (v/v) Tween-20), once in 50 mM HEPES pH 7.4 with 0.02% (v/v) Tween-20, then resuspended to a 50% slurry with 50 mM HEPES pH 7.4 and 10 µl added to the activity assays. For in solution kinase assays, α1β1γ1 AMPK was eluted from glutathione-Sepharose by incubating with purification buffer supplemented with 40 mM reduced glutathione (Sigma–Aldrich).
AMPK activity was determined by phosphorylation of the SAMS peptide (Purar Chemicals, sequence: NH2-HMRSAMSGLHLVKRR-COOH) in a 25 µl reaction volume containing 100 µM SAMS peptide, 5 mM MgCl2, 200 µM ATP, [γ-^32P]-ATP (PerkinElmer) and assay buffer (50 mM HEPES pH 7.4, 1 mM DTT and 0.02% (v/v) Tween-20) and purified AMPK. Phosphotransferase activity was conducted at 30°C for 10 min and reactions were quenched by spotting 15 µl onto phosphocellulose ion-exchange chromatography paper (made in-house), followed by repeated washes in 1% H3PO4 (Merck Millipore). Ultima Gold liquid scintillation fluid (5 ml; PerkinElmer) was added to vials containing dried phosphocellulose papers, and the level of ^32P-transfer to the SAMS peptide was determined using a Tri-Carb 2900TR liquid scintillation counter (PerkinElmer).
⍺1β1γ1 – in solution E. coli-expressed ⍺2β1γ1 […]
log [compound] (M) log [compound] (M)
Compound EC (nM) Max. fold Compound EC50 (nM) Max. fold
Supplementary Figure 3. In solution activation kinetics for AMPK complexes. Related to Figure 2. Activities measured in the presence of 0-30 µM AMPK activators. […]

In general, EC50 refers to the concentration that produces a half-maximal response. Low values mean greater potency, high ones weaker potency. For `O[C@@H]1CO[C@H]2[C@@H]1OC[C@H]2Oc1nc2nc(-c3ccc(-c4ccccc4)cc3)c(Cl)cc2[nH]1` [MK-8722, reference compound], in the data set with C2C12 myoblasts (0, 1, 10 µM, after respiration assay), the “cell viability by total protein stain” value is “not due to loss of cell viability”. For the same molecule, the “basal respiration, ATP production, maximal respiration, spare respiratory capacity, non-mitochondrial oxygen consumption and coupling efficiency” value in the data set with C2C12 myoblasts (1 µM) is recorded as “not”. In addition, the “basal respiration, ATP production, maximal respiration, spare respiratory capacity, non-mitochondrial oxygen consumption and coupling efficiency” value in the data set on C2C12 myoblasts (10 µM) was “significantly impaired”. In data set [1], this molecule registered a Max. fold activation of 1.8 fold and an EC50 of 1740 nM.

Take `CC(=O)NC1CC=C(c2ccc(-c3nc4nc(Oc5ccc(C)c(C(=O)O)c5)[nH]c4cc3Cl)cc2)CC1` (stereo not shown) [MSG011, 5-((5-(4′-Acetamido-2′,3′,4′,5′-tetrahydro-[1,1′-biphenyl]-4-yl)-6-chloro-1H-imidazo[4,5-b]pyridin-2-yl)oxy)-2-methylbenzoic acid]: in data set [1], the Max. fold activation is 2.6 fold and the EC50 turned out to be 25.2 nM.
